Source: article PMC4770093, “The role of kinetic context in apparent biased agonism at GPCRs” (Nature Communications, 2016)

Key:
[1] = target: SNAP-tagged human dopamine D2L (Homo sapiens, UniProt P14416); assay: Tag-lite PPHT-red competition kinetic binding (HTRF); details: SNAP-D2LR-CHO membranes; 100 μM Gpp(NH)p; 37 °C
Procedure: To terbium label the SNAP-CHO-D2L cells, cell culture medium was removed from the T175 cm^2 flasks containing confluent adherent SNAP-CHO-D2L cells. Twelve millilitres of Tag-lite labelling medium containing 100 nM of SNAP-Lumi4-Tb was added to the flask and incubated for 1 h at 37 °C under 5% CO2. Cells were then washed 2 × in 15 ml PBS (GIBCO, Invitrogen, Paisley, UK) to remove the excess of SNAP-Lumi4-Tb and detached using 5 ml of enzyme-free Hank's-based cell dissociation buffer (GIBCO, Invitrogen, Paisley, UK) and collected in a vial containing 5 ml of DMEM/Nutrient F-12 Ham, 2 mM glutamine supplemented 10% FCS. Cells were pelleted by centrifugation (5 min at 1,500 r.p.m.) and the pellets were frozen to −80 °C before preparation of membranes.
All subsequent steps described were conducted at 4 °C, to avoid receptor degradation. Twenty millilitres of wash buffer (10 mM HEPES and 10 mM EDTA pH 7.4) was added to the pellet of terbium-labelled cells (equivalent to 1 × t175 cm^2). […] The supernatant was discarded and the pellet was homogenized and centrifuged as described above in wash buffer. The final pellet was suspended in ice-cold 10 mM HEPES and 0.1 mM EDTA pH 7.4, at a concentration of 5–10 mg m^−1. Protein concentration was determined by the bicinchoninic acid assay using BSA as a standard and aliquots maintained at −80 °C until required. Before their use, the frozen membranes were thawed and the membranes suspended in the assay buffer at a membrane concentration of 0.1 mg m^−1.
GppNHp was included to remove the G protein-coupled population of receptors that can result in two binding sites in membrane preparations, because the Motulsky–Mahan model is only appropriate for ligands competing at a single site. […] Both fluorescent ligands and unlabelled compounds were diluted in the binding assay buffer.
Kinetics acquisitions at intervals of 20 s were recorded using the standard settings of the reader for HTRF measurements. […] Specific binding was determined by subtracting the nonspecific HTRF ratio from the total HTRF ratio.
To accurately determine association rate (kon) and dissociation rate (koff) values, the observed rate of association (kob) was calculated using at least four different concentrations of PPHT-red. The appropriate concentration of PPHT-red was incubated in a 384-well Optiplate with human SNAP-D2LR-CHO cell membranes (2 μg per well) in assay binding buffer at 37 °C (final assay volume, 40 μl). The degree of PPHT-red bound to the receptor was assessed at multiple time points by HTRF detection, to allow construction of association kinetic curves. The resulting data were globally fitted to the association kinetic model (equation (8)) to derive a single best-fit estimate for kon and koff as described under ‘Data analysis'.
On the same 384-well Optiplate plate, the kinetic parameters of unlabelled ligand were assessed using a competition kinetic binding assay. This approach involves the simultaneous addition of both fluorescent ligand and competitor to receptor preparation so that at t=0 all receptors are unoccupied. […] The degree of PPHT-red bound to the receptor was assessed at multiple time points by HTRF detection. Nonspecific binding was determined as the amount of HTRF signal detected in the presence of spiperone (1 μM) and was subtracted from each time point. Each time point was conducted on the same 384-well plate incubated at 37 °C with shaking (100 r.p.m.) after every cycle.
Data were globally fitted using equation (7), to simultaneously calculate kon and koff.

D2R = assay: Simulation of receptor occupancy over time from kon and koff; details: simulation with a KD concentration of each agonist
Excerpt: We extended these studies with a Tag-lite receptor binding assay using a D2R construct with an amino-terminal SNAP tag and the fluorescently labelled agonist (±)-4′-amino-2-(N-phenethyl-N-propyl)-amino-5-hydroxytetralin (PPHT). […] The association rate of a ligand is often thought to be diffusion limited. […] Using these kinetic parameters, we performed a simulation to estimate the receptor occupancy of a KD concentration of each agonist over time (Fig. 4e).
Kinetic binding parameters of kon (a), koff (b) and t1/2 (c) were determined in a competition kinetic binding assay using a Tag-lite binding assay and the fluorescently labelled agonist PPHT as the tracer ligand (Supplementary Table 6). […] All values are expressed as mean±s.e.m. from three experiments. (e) The values of kon and koff obtained in the competition kinetic assay were used to simulate receptor occupancy over time using equation (9) and the concentration of ligand equivalent to its KD (see Supplementary Table 6).
where Ymax reflects maximum binding of a concentration of ligand and kob is determined by equation (8).

Chain of SNAP-tagged human dopamine D2L (P14416 whole entry): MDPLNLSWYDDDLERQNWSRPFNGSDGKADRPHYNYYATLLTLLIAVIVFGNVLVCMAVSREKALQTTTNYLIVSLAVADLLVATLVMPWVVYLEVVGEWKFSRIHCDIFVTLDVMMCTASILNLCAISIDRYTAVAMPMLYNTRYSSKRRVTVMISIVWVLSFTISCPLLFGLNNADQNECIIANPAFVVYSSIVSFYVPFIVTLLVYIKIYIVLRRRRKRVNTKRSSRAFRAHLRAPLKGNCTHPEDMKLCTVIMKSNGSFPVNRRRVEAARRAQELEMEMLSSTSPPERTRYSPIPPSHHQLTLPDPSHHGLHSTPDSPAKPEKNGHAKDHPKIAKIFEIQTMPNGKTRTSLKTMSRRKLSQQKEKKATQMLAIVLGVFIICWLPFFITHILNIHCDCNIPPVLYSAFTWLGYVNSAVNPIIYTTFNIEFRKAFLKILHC

Row | SMILES | rate of dissociation of the fluorescent tracer [1] [min⁻¹] | time to maximal receptor occupancy (D2R) [min]
1 | CCCN(CCc1ccc(N)cc1)C1CCc2c(O)cccc2C1 (racemic) [PPHT, (±)-4′-amino-2-(N-phenethyl-N-propyl)-amino-5-hydroxytetralin] | 0.45 | 
2 | CN(C)C(=O)N[C@H]1CC[C@H](CCN2CCN(c3cccc(Cl)c3Cl)CC2)CC1 [Cariprazine, cariprazine] |  | ~10
3 | NCCc1ccc(O)c(O)c1 [Dopamine, dopamine] |  | ≤ 1
